Where only a bound is given, the exact number is not on record here.

Here are results for 20 compounds from ChEMBL document CHEMBL1141008, “Identification of small molecule agonists of the motilin receptor” (Bioorg Med Chem Lett, 2008).

Data set [1] addresses T1, Motilin receptor (Homo sapiens, UniProt O43193). The experiment in a line: Intrinsic activity at human recombinant motilin receptor expressed in CHO cells by calcium mobilization-based FLIPR assay relative to motilin. The format is functional, cell-based.
Data set [2] has as its target T1, Motilin receptor. The experiment in a line: Agonist activity at human recombinant motilin receptor expressed in CHO cells by calcium mobilization-based FLIPR assay. It counts as functional, cell-based.
Data set [3] concerns the target T1, Motilin receptor. The experiment in a line: Agonist activity at human recombinant motilin receptor expressed in HEK293 cells by calcium mobilization-based FLIPR assay. It counts as functional, cell-based.
Data set [4] concerns the target Growth hormone secretagogue receptor type 1 (Homo sapiens) (UniProt Q92847). Put plainly: Activity at ghrelin receptor in human recombinant cells by calcium mobilization-based FLIPR assay.
Data set [5] relates to Stomach. Put plainly: Increase in electric field stimulated contractile response in New Zealand White rabbit gastric antrum at 10 uM pre-incubated for 15 mins. The format is functional, Oryctolagus cuniculus.
A short description of data set [6]: Half life in New Zealand White rabbit gastric antrum at 10 uM. The format is ADME, tissue-based, Oryctolagus cuniculus, Stomach.
Data set [7] in a line: Selectivity for human recombinant motilin receptor over ghrelin receptor in FLIPR assay.
A short description of data set [8]: Half life in New Zealand White rabbit gastric antrum at 3 uM. The format is ADME, tissue-based, Oryctolagus cuniculus, Stomach.
For data set [9], the system named is Stomach. Put plainly: Increase in electric field stimulated contractile response in New Zealand White rabbit gastric antrum at 3 uM pre-incubated for 15 mins. It counts as functional, Oryctolagus cuniculus.
For data set [10], the system named is Stomach. Put plainly: Increase in electric field stimulated contractile response in New Zealand White rabbit gastric antrum at 0.3 uM preincubated for 15 mins. It counts as functional, Oryctolagus cuniculus.
Data set [11] in a line: Half life in New Zealand White rabbit gastric antrum at 0.3 uM. The format is ADME, tissue-based, Oryctolagus cuniculus, Stomach.

T1 sequence (O43193 whole entry): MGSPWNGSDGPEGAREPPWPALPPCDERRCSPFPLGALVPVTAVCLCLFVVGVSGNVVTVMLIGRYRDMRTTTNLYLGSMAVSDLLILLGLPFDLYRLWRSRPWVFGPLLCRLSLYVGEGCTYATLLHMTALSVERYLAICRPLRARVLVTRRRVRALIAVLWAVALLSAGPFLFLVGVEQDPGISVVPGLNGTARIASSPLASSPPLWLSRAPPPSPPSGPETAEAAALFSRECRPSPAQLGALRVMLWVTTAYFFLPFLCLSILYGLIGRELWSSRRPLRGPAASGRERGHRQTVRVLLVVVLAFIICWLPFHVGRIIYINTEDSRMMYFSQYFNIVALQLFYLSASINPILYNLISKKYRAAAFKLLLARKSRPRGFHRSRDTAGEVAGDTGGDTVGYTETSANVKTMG
Chain of Growth hormone secretagogue receptor type 1 (Homo sapiens) (Q92847 whole entry, looked up): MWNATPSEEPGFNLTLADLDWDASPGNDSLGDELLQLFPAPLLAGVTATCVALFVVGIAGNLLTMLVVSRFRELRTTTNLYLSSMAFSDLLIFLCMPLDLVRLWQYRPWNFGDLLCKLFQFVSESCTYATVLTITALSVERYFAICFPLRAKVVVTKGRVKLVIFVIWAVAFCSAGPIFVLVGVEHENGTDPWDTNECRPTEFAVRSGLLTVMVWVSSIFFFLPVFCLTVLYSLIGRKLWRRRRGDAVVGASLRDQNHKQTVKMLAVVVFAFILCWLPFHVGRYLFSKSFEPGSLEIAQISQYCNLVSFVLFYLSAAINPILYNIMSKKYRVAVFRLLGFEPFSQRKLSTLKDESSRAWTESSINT

On to `COCCCN(Cc1ccccc1-c1ccc(CN2CCNCC2)cc1)C(=O)Cc1ccccc1`, for which the Activity on Motilin receptor [1] was determined as 0.7. Moreover, the EC50 at Motilin receptor [2] is 794 nM.
As to `COCCCN(Cc1ccccc1-c1ccc(CN2CCNCC2)cc1)S(=O)(=O)c1ccc(F)cc1`, the concentration for a half-maximal effect (EC50) at Motilin receptor [3] is 631 nM.
In the case of `COc1cccc(CCN(Cc2ccccc2-c2ccc(CCN3CCNCC3)cc2)C(=O)NC2CCCCC2)c1`, at Motilin receptor [2], the EC50 is above 12600 nM.
Regarding `COc1cccc(CCNCc2ccccc2-c2ccc(CN3CCNCC3)cc2)c1`, the concentration for a half-maximal effect (EC50) on Motilin receptor [3] is 5010 nM.
In the case of `COCCCN(Cc1ccccc1-c1ccc(CN2CCNCC2)cc1)C(=O)NC1CCCCC1`, at Motilin receptor [3], the concentration giving a half-maximal response (EC50) is 501 nM.
Regarding `COc1cccc(CCN(Cc2ccccc2-c2ccc(N3CCNCC3)cc2)C(=O)NC2CCCCC2)c1`, the Activity on Motilin receptor [1] amounted to 0.9. Moreover, the half-maximal effective concentration (EC50) at Motilin receptor [2] is 5010 nM.
Take `COc1cccc(CCN(Cc2ccccc2-c2ccc(CN3CCNCC3)cc2)C(=O)NC2CCCCC2)c1`: the Activity on Motilin receptor [1] is 0.9. Moreover, the EC50 is 50.1 nM at Motilin receptor [2] and 100 nM on Motilin receptor [3].
As to `COCCCN(Cc1ccccc1-c1ccc(C(=O)N2CCNCC2)cc1)C(=O)Cc1ccccc1`, at Motilin receptor [2], the concentration for a half-maximal effect (EC50) was above 3160 nM.
Same read-out and setting: to `COCCCN(Cc1ccccc1-c1ccc(CN2CCN(C(C)=O)CC2)cc1)C(=O)Cc1ccccc1` belongs above 12600 nM.
Turning to `COc1cccc(CCN(Cc2ccccc2-c2ccc(CN3C[C@@H](C)N[C@@H](C)C3)cc2)C(=O)NC2CCCCC2)c1`, the Activity at Motilin receptor [1] amounted to 1; in the data set with Stomach [5], 182%. In [4], the concentration giving a half-maximal response (EC50) was 126 nM. In [6], this compound had a half-life at 10 µM of 39 min. The fold change (FC) in [7] was 10.
For `COCCCN(Cc1ccccc1-c1ccc(CN2CCOCC2)cc1)C(=O)Cc1ccccc1`, the EC50 on Motilin receptor [2] was above 12600 nM.
Consider `CC[C@H]1OC(=O)[C@H](C)[C@@H](O[C@H]2C[C@@](C)(OC)[C@@H](O)[C@H](C)O2)[C@H](C)[C@@H](O[C@@H]2O[C@H](C)C[C@H](N(C)C)[C@H]2O)[C@](C)(O)C[C@@H](C)C(=O)[C@H](C)[C@@H](O)[C@]1(C)O` [ERYTHROMYCIN], for which the half-life at 3 µM in [8] was 23 min. In the data set on Stomach [9], this compound showed an Activity of 490%.
As to `COc1cccc(CCN(Cc2ccccc2-c2ccc(CN3CCNCC3)cc2)C(=O)Cc2ccccc2)c1`, on Motilin receptor [3], the EC50 is 1000 nM.
Turning to `COCCCN(Cc1ccccc1-c1ccc(CN2CCN(C)CC2)cc1)C(=O)Cc1ccccc1`, the EC50 at Motilin receptor [2] was above 12600 nM.
The same measure, in the same setting: to `COCCCN(Cc1ccccc1-c1ccc(CN2CCCCC2)cc1)C(=O)Cc1ccccc1` belongs above 12600 nM.
Turning to `O=C(NC1CCCCC1)N(CCc1ccccc1)Cc1ccccc1-c1cccc(CN2CCNCC2)c1`, the EC50 at Motilin receptor [3] was 1580 nM.
For `COc1cccc(CCN(Cc2ccccc2-c2ccc(CC3CCNCC3)cc2)C(=O)NC2CCCCC2)c1`, the Activity at Motilin receptor [1] was determined as 0.6. The EC50 on Motilin receptor [2] is 398 nM.
Consider `CC[C@H](C)[C@H](NC(=O)[C@@H]1CCCN1C(=O)[C@@H](NC(=O)[C@@H](N)Cc1ccccc1)C(C)C)C(=O)N[C@@H](Cc1ccccc1)C(=O)N[C@H](C(=O)N[C@@H](Cc1ccc(O)cc1)C(=O)NCC(=O)N[C@@H](CCC(=O)O)C(=O)N[C@@H](CC(C)C)C(=O)N[C@@H](CCC(N)=O)C(=O)N[C@@H](CCCN=C(N)N)C(=O)N[C@@H](CCSC)C(=O)N[C@@H](CCC(N)=O)C(=O)N[C@@H](CCC(=O)O)C(=O)N[C@@H](CCCCN)C(=O)N[C@@H](CCC(=O)O)C(=O)N[C@@H](CCCN=C(N)N)C(=O)N[C@@H](CC(N)=O)C(=O)N[C@@H](CCCCN)C(=O)NCC(=O)N[C@@H](CCC(N)=O)C(=O)O)[C@@H](C)O` [MOTILIN], for which, in the data set on Stomach [10], the Activity turned out to be 506%. For the same compound, in [11], the half-life at 0.3 µM was 9 min.
On to `COCCCN(Cc1ccccc1-c1ccc(CN2CCNCC2)cc1)C(C)=O`, for which the EC50 on Motilin receptor [3] was 631 nM.
For `COCCCN(Cc1ccccc1-c1ccc(CN(C)CCN(C)C)cc1)C(=O)Cc1ccccc1`, the Activity on Motilin receptor [1] amounted to 0.4. In addition, at Motilin receptor [2], the half-maximal effective concentration (EC50) is 3160 nM.
